Data as given in ChEMBL document CHEMBL5500404, “Discovery and Development of NLRP3 Inhibitors Targeting the LRR Domain to Disrupt NLRP3-NEK7 Interaction for the Treatment of Rheumatoid Arthritis” (J Med Chem, 2024).
Activity calls are given as the source filed them. The rule behind the calls is not given here.

Tests used:
[1] = tested on: THP-M; assay: Effect on ASC (apoptosis-related speck-like protein containing a CARD) level in LPS/nigericin-induced human THP-M cells assessed as inhibition of pro-IL-1beta level at 20 to 60 uM pretreated for 24 hrs followed by stimulated with LPS for 3 hrs and ATP for 1 hr by Western blot analysis relative to control; assay type: functional, cell-based; conditions: dose 20-60 µM, time 28.0 hrs
[2] = MRT (0 to t) in Sprague-Dawley rat at 20 mg/kg, IG measured upto 1440 mins by LC-MS/MS analysis; assay type: ADME, organism-based; conditions: in vivo, po
[3] = Half life in Sprague-Dawley rat at 20 mg/kg, ip measured upto 720 mins by LC-MS/MS analysis; assay type: ADME, organism-based; conditions: in vivo
[4] = MRT (0 to t) in Sprague-Dawley rat at 20 mg/kg, ip measured upto 720 mins by LC-MS/MS analysis; assay type: ADME, organism-based; conditions: in vivo
[5] = MRT (0 to infinity) in Sprague-Dawley rat at 20 mg/kg, ip measured upto 720 mins by LC-MS/MS analysis; assay type: ADME, organism-based; conditions: in vivo
[6] = Apparent volume of distribution during terminal phase in Sprague-Dawley rat at 20 mg/kg, ip measured upto 720 mins by LC-MS/MS analysis; assay type: ADME, organism-based; conditions: in vivo, read-out: Vz/F

## COCCCNC(=O)c1ccc(Cn2c(SCC3CCCCC3)nc3ccncc32)cc1
[1]
  inhibition: inactive
[2]
  MRT last at 24 h: 138 min
[3]
  half-life: 44.1 min
[4]
  MRT last at 12 h: 41.9 min
[5]
  MRT inf: 44.5 min
[6]
  Vd/F: 2.8 L/kg
